Test results from patent publication US6683027B2, “Herbicidal mixtures” (BASF Aktienegesellschaft, priority 2000, dated 2004).

Key:
Format in all cases: in vivo
Setaria viridis [1] = assay: greenhouse post-emergence trial, percent damage vs untreated control 21 days after treatment; conditions: SETVI; for carfentrazone alone (% control): Example 9; for IPU alone (% control): Example 1B
Method: (§1) The trials are carried out under greenhouse conditions in pre- and post-emergence applications. The plant seeds are sown in pots containing a loamy sand soil (0.5 l). The herbicides are applied as single treatments, or in a combination comprising a compound of formula I and compound selected from group (2) as defined above, before or after emergence of weeds and crop. The herbicidal performance is assessed as percent damage in comparison to the untreated control plants. The assessment is done 21 days after the treatment. Wheat and barley are treated at the 3-4 leaf stage, the broad-leaf weeds at the 2-4 leaf stage and annual grasses at the 2-3 leaf stage.

Matricaria inodora [2] = assay: as above; conditions: MATIN; for carfentrazone alone (% control): Example 9
Method: as §1

Stellaria media [3] = assay: as above; conditions: STEME; for fenoxaprop alone (% control): Example 13
Method: as §1

Apera spica-venti = assay: as above; conditions: APESV
Method: as §1

Lolium perenne [4] = assay: as above; conditions: LOLPE; for fenoxaprop alone (% control): Example 13
Method: as §1

Alopecurus myosuroides [5] = assay: as above; conditions: ALOMY; for fenoxaprop alone (% control): Example 13; for IPU alone (% control): Example 1B
Method: as §1

Galium aparine = assay: greenhouse pre-emergence trial, percent damage vs untreated control 21 days after treatment; conditions: GALAP; for JV 485 alone (% control): Example 3; for flufenacet alone (% control): Example 2
Alopecurus myosuroides [6] = assay: as above; conditions: ALOMY; for JV 485 alone (% control): Example 3
Papaver rhoeas [7] = assay: greenhouse post-emergence trial, percent damage vs untreated control 21 days after treatment; conditions: PAPRH, Example 1B
Method: as §1

Veronica persica [8] = assay: as above; conditions: VERPE, Example 1B
Method: as §1

Lamium purpureum [9] = assay: as above; conditions: 60 g/ha, LAMPU, Example 1B
Method: as §1

Lamium purpureum [10] = assay: greenhouse pre-emergence trial, percent damage vs untreated control 21 days after treatment; conditions: LAMPU, Example 1A
Setaria viridis [11] = assay: as above; conditions: SETVI, Example 1A
Papaver rhoeas [12] = assay: as above; conditions: PAPRH; for flufenacet alone (% control): Example 2
Veronica persica [13] = assay: as above; conditions: VERPE; for IPU alone (% control): Example 1A; for flufenacet alone (% control): Example 2
Lolium perenne [14] = assay: as above; conditions: LOLPE
Stellaria media [15] = assay: as above; conditions: STEME
Matricaria inodora [16] = assay: as above; conditions: MATIN, Example 2

Cc1nn(-c2cc(CC(Cl)C(=O)O)c(Cl)cc2F)c(=O)n1C(F)F (stereo not shown) [carfentrazone, reference compound]
carfentrazone alone (% control) (Setaria viridis [1]; 1.88 g/ha): 0% | carfentrazone alone (% control) (Setaria viridis [1]; 15 g/ha): 0% | carfentrazone alone (% control) (Matricaria inodora [2]; 1.88 g/ha): 0% | carfentrazone alone (% control) (Matricaria inodora [2]; 15 g/ha): 48% | carfentrazone alone (% control) (Stellaria media [3]; 1.88 g/ha, Example 9): 0%

CC(Oc1ccc(Oc2nc3ccc(Cl)cc3o2)cc1)C(=O)O (stereo not shown) [fenoxaprop, reference compound]
fenoxaprop alone (% control) (Apera spica-venti; 30 g/ha, Example 13): 58% | fenoxaprop alone (% control) (Lolium perenne [4]; 15 g/ha): 3% | fenoxaprop alone (% control) (Lolium perenne [4]; 60 g/ha): 43% | fenoxaprop alone (% control) (Alopecurus myosuroides [5]; 15 g/ha): 0% | fenoxaprop alone (% control) (Alopecurus myosuroides [5]; 30 g/ha): 0% | fenoxaprop alone (% control) (Matricaria inodora [2]; 30 g/ha, Example 13): 0% | fenoxaprop alone (% control) (Stellaria media [3]; 30 g/ha): 0% | fenoxaprop alone (% control) (Stellaria media [3]; 60 g/ha): 0%

CC(C)OC(=O)c1cc(-c2nn(C)c(C(F)(F)F)c2Br)c(F)cc1Cl [JV 485, isopropyl 2-chloro-4-fluoro-5-(4-bromo-1-methyl-6-trifluoromethyl-pyrazol-3-yl)-benzoate, reference compound]
JV 485 alone (% control) (Galium aparine; 60 g/ha): 0% | JV 485 alone (% control) (Galium aparine; 120 g/ha): 63% | JV 485 alone (% control) (Alopecurus myosuroides [6]; 30 g/ha): 10% | JV 485 alone (% control) (Alopecurus myosuroides [6]; 60 g/ha): 25% | JV 485 alone (% control) (Alopecurus myosuroides [6]; 120 g/ha): 65%

CC(C)c1ccc(NC(=O)N(C)C)cc1 [IPU]
IPU alone (% control) (Apera spica-venti; 60 g/ha, Example 1B): 50% | IPU alone (% control) (Lolium perenne [4]; 60 g/ha, Example 1B): 38% | IPU alone (% control) (Papaver rhoeas [7]; 60 g/ha): 0% | IPU alone (% control) (Papaver rhoeas [7]; 120 g/ha): 25% | IPU alone (% control) (Papaver rhoeas [7]; 240 g/ha): 48% | IPU alone (% control) (Setaria viridis [1]; 60 g/ha): 15% | IPU alone (% control) (Setaria viridis [1]; 120 g/ha): 40% | IPU alone (% control) (Alopecurus myosuroides [5]; 60 g/ha): 15% | IPU alone (% control) (Alopecurus myosuroides [5]; 120 g/ha): 38% | IPU alone (% control) (Veronica persica [8]; 60 g/ha): 15% | IPU alone (% control) (Veronica persica [8]; 240 g/ha): 5% | IPU alone (% control) (Stellaria media [3]; 60 g/ha, Example 1B): 25% | IPU alone (% control) (Lamium purpureum [9]): 0% | IPU alone (% control) (Lamium purpureum [10]; 60 g/ha): 0% | IPU alone (% control) (Lamium purpureum [10]; 120 g/ha): 15% | IPU alone (% control) (Lamium purpureum [10]; 240 g/ha): 70% | IPU alone (% control) (Galium aparine; 120 g/ha, Example 1A): 0% | IPU alone (% control) (Setaria viridis [11]; 60 g/ha): 0% | IPU alone (% control) (Setaria viridis [11]; 120 g/ha): 20% | IPU alone (% control) (Setaria viridis [11]; 240 g/ha): 65% | IPU alone (% control) (Papaver rhoeas [12]; 60 g/ha, Example 1A): 0% | IPU alone (% control) (Alopecurus myosuroides [6]; 60 g/ha, Example 1A): 43% | IPU alone (% control) (Veronica persica [13]; 60 g/ha): 0% | IPU alone (% control) (Veronica persica [13]; 120 g/ha): 0% | IPU alone (% control) (Veronica persica [13]; 240 g/ha): 0% | IPU alone (% control) (Lolium perenne [14]; 60 g/ha, Example 1A): 40% | IPU alone (% control) (Stellaria media [15]; 60 g/ha, Example 1A): 15%

CC(C)N(C(=O)COc1nnc(C(F)(F)F)s1)c1ccc(F)cc1 [flufenacet]
flufenacet alone (% control) (Matricaria inodora [16]; 15 g/ha): 0% | flufenacet alone (% control) (Matricaria inodora [16]; 30 g/ha): 0% | flufenacet alone (% control) (Galium aparine; 15 g/ha): 0% | flufenacet alone (% control) (Galium aparine; 30 g/ha): 10% | flufenacet alone (% control) (Galium aparine; 60 g/ha): 55% | flufenacet alone (% control) (Papaver rhoeas [12]; 15 g/ha): 0% | flufenacet alone (% control) (Papaver rhoeas [12]; 30 g/ha): 0% | flufenacet alone (% control) (Papaver rhoeas [12]; 60 g/ha): 0% | flufenacet alone (% control) (Veronica persica [13]; 15 g/ha): 0% | flufenacet alone (% control) (Veronica persica [13]; 30 g/ha): 10% | flufenacet alone (% control) (Veronica persica [13]; 60 g/ha): 10% | flufenacet alone (% control) (Lolium perenne [14]; 15 g/ha, Example 2): 30% | flufenacet alone (% control) (Stellaria media [15]; 30 g/ha, Example 2): 0%
